The target of experiment [1] is T1, Falcipain 2 (Plasmodium falciparum, UniProt Q9N6S8).
T1 sequence (Q9N6S8 whole entry): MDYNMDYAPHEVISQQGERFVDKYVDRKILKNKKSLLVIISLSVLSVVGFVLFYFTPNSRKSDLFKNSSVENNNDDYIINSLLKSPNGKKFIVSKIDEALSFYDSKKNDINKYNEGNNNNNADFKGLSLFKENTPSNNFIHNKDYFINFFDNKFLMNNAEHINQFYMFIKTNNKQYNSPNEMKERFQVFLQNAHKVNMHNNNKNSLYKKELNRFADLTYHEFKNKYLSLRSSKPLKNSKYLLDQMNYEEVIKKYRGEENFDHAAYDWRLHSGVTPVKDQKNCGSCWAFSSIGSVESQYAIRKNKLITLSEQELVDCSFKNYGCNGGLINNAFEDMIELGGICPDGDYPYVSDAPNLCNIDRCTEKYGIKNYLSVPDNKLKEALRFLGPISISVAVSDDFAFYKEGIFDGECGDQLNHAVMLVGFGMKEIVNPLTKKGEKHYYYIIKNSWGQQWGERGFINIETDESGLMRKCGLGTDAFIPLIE
Put plainly: Inhibition of recombinant Plasmodium falciparum falcipain-2 expressed in bacterial expression system using ZFR-AMC as substrate measured for 30 mins by fluorimetric assay.

In experiment [2] the target is T2, Falcipain 2 (Plasmodium falciparum) (UniProt Q9N6S8).
T2 sequence (whole entry): T1 sequence (Q9N6S8 whole entry)
Put plainly: Inhibition of recombinant Plasmodium falciparum falcipain-2 expressed in bacterial expression system using ZFR-AMC as substrate at 100 uM measured for 30 mins by fluorimetric assay relative to control.

Experiment [3] addresses T3, Cysteine protease falcipain-3 (Plasmodium falciparum) (UniProt Q9NAW4).
T3 sequence (whole entry): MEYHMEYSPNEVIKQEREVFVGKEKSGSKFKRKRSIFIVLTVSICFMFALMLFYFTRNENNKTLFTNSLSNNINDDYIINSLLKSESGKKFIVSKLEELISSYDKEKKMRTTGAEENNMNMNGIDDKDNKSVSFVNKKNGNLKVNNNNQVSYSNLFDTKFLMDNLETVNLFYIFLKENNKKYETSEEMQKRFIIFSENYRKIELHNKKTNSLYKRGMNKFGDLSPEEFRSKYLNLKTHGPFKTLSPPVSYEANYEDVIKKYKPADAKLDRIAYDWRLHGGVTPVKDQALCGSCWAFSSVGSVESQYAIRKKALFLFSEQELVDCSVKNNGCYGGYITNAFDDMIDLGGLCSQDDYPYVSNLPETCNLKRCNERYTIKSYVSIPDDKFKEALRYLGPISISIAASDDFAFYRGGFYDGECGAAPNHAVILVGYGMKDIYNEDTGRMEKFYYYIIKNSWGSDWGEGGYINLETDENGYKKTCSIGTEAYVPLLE
As to the kind of experiment: Inhibition of recombinant Plasmodium falciparum falcipain-3 expressed in bacterial expression system using ZFR-AMC as substrate at 100 uM measured for 30 mins by fluorimetric assay relative to control.

In experiment [4] the test system is Plasmodium falciparum. Put plainly: Antimalarial activity against Plasmodium falciparum 3D7 infected in human erythrocytes assessed as increase in arrest of ring stage at 100 uM incubated for 54 hrs by giemsa staining based light microscopy relative to control. The class given is functional.
For experiment [5], the target named is T4, Cysteine protease falcipain-3 (Plasmodium falciparum, UniProt Q9NAW4).
T4 sequence (Q9NAW4 whole entry): T3 sequence (whole entry)
As to the kind of experiment: Inhibition of recombinant Plasmodium falciparum falcipain-3 expressed in bacterial expression system using ZFR-AMC as substrate measured for 30 mins by fluorimetric assay.

Experiment [6] concerns Plasmodium falciparum. Put plainly: Antimalarial activity against Plasmodium falciparum 3D7 infected in human erythrocytes assessed as increase in arrest of ring stage at 100 uM measured after 46 hrs by giemsa staining based light microscopy. The class given is functional, organism-based.
The test system of experiment [7] is Plasmodium falciparum. Put plainly: Antimalarial activity against Plasmodium falciparum 3D7 infected in human erythrocytes assessed as increase in arrest of ring stage at 100 uM incubated for 46 hrs by giemsa staining based light microscopy. The format is functional, organism-based.
The test system of experiment [8] is Plasmodium falciparum. Put plainly: Antimalarial activity against Plasmodium falciparum 3D7 infected in human erythrocytes assessed as food-vacoules abnormalities at 10 uM incubated for 54 hrs by giemsa staining based light microscopy. The format is functional, organism-based.
In experiment [9] the test system is Plasmodium falciparum. As to the kind of experiment: Antimalarial activity against Plasmodium falciparum 3D7 infected in human erythrocytes assessed as morphological abnormalities at 10 uM incubated for 54 hrs by giemsa staining based light microscopy. The format is functional, organism-based.

A word on the IC50: it is the concentration at which inhibition is half-maximal. Usually inhibition stands for how much of the control response was suppressed.

SMILES strings stand for the structures. Calls of active or inactive are those of the source. The rule behind the calls is not given here.

With `O=C(NCCCNC(=O)c1cc2ccccc2[nH]1)c1ccc(-c2ccccc2)cc1`, the values for the IC50 in experiment [1] and in [5] were 12.2 µM and 8.56 µM, respectively. The inhibition came to 51% in [2] and 62% in experiment [3]. The Activity in [4] turned out to be 100%.

For `Cc1ccc(NC(=O)CN2CCC[C@H](c3nc4ccccc4o3)C2)cc1C`, the inhibition in experiment [2] turned out to be 41%; in experiment [3] it was 9%.

Turning to `Cc1cccc(O)c1OC1CCN(CC(=O)Nc2ccc(CN3CCOCC3)cc2)CC1`, the inhibition in experiment [2] was determined as 43%; in experiment [3] it was 25%.

As for `CCc1ccc(NC(=O)CN2CCN(c3nc4ccccc4s3)CC2)cc1`, the inhibition in experiment [2] is 43%; in [3] it was 26%.

For the compound `CN1CCCc2cc(CCNC(=O)C(=O)Nc3ccc4c(c3)OCO4)ccc21`, the IC50 in experiment [1] is 14.7 µM; in [5], 9.98 µM. In [6], the outcome was inactive. The outcome in experiment [7] was Active. For the same compound, the inhibition turned out to be 53% in experiment [2] and 61% in [3].

Regarding `O=C1C[C@H](C(=O)Nc2ccccc2)NC(N2CCN(Cc3ccccc3)CC2)=N1`, the inhibition in experiment [2] is 44%; in experiment [3] it was 17%.

Turning to `O=C(NCCCn1nc2n(c1=O)CCCC2)c1cc2c(cc1O)CCCC2`, the values for the inhibition in [2] and in [3] were 42% and 15%, respectively.

As for `O=C(CNC(=O)N1CCN(Cc2ccccc2)CC1)NC1=CC2=CC=N[C@@H]2C=C1`, the inhibition in experiment [2] amounted to 39%; in experiment [3] it was 15%.

For the compound `O=C(CCC1=CC(=O)C2C(=N1)SC1=C2CCCC1)NC1CCCCNC1=O` (stereo unspecified), the inhibition in [2] turned out to be 49%; in experiment [3] it was 39%.

With `O=C1CN(CC(=O)NC2CCOc3ccccc32)CCN1` (stereo unspecified), the inhibition in [2] and in [3] was 25% in each case.

`O=C(Nc1ccc([C@@H]2C=c3ccccc3=N2)cc1)[C@@H]1CCCN1C1CCOCC1`: the inhibition amounted to 46% in experiment [2] and 50% in experiment [3].

On to `CC(C)C[C@H](NC(=O)[C@H]1O[C@@H]1C(=O)O)C(=O)NCCCCN=C(N)N`, for which the result in experiment [8] and in experiment [9] was Active.

For `O=C(CN1CCN(C2=NCCC=N2)CC1)Nc1cccc2ccccc12`, the inhibition in [2] is 19%; in experiment [3] it was 21%.

`Cc1ccc(NCC(=O)NC2CC2)cc1S(=O)(=O)C1CCCCC1`: the inhibition amounted to 19% in [2] and 6% in experiment [3].

In the case of `O=C(CN1CCC(c2ccccc2)C1)NC1CCC2(CC1)OCCO2` (stereo unspecified), the inhibition in [2] was 22%; in experiment [3], 69%.

`O=C(CN1CCC(C2N=c3ccccc3=N2)CC1)Nc1cccc2ccccc12`: the inhibition in experiment [2] stood at 47%; in [3], 49%.

Turning to `O=C1CCc2cc(CNC(=O)Cn3ncc4ccccc4c3=O)ccc2C1`, the values for the inhibition in [2] and in [3] were 42% and 41%, respectively.

For the origin of these results see ChEMBL document CHEMBL4609980, “Identification of antimalarial leads with dual falcipain-2 and falcipain-3 inhibitory activity” (Bioorg Med Chem, 2020).
